Test results: patent US10561638B2, “Methods for treating dependence” (Biotie Therapies, Inc., priority 2007, dated 2020)

Assays:
anesthetized SHRs = assay: Acute i.v. treatment of anesthetized SHRs, blood pressure and renal function; assay type: in vivo, spontaneously hypertensive rats; conditions: 3.0 mg/kg i.v.
Text: The calculated renal vascular resistance was decreased following dosing. An attempt was made using the DA-1 antagonist SCH-23390 to assess if the renal vasodilator effects of nepicastat were mediated by DA-1 receptors.

normotensive Wistar rats = assay: 7 day radio-telemetry study in normotensive Wistar rats
Method: Male Crl:COBS(WI)BR rats of 15 weeks old were used.
Both nepicastat and hydralazine were prepared in water with traces of Tween 80. All doses were given orally to the rat in 10 ml/kg and were expressed as free base equivalents.
All values were expressed as means±SEM. Statistical significance was defined as a p level of less than 0.05.
Body weights were recorded daily.

[1] = test system: short-term or working memory in rats; assay: Delayed-matching-to-position (DMTP) test; assay type: in vivo, Sprague Dawley rats
Method: In the present DMTP study, rats were trained to remember the position of a lever across a scheduled delay of either 0, 8, 16 or 32 s in order to earn food reward. […] Another group of rats received only vehicle treatment throughout the experiment. […] The dependent measures in the present study included percentage of correct choices, the latency to make choice responses and the number of trials which the animals were able to complete during the 70 min test sessions. Changes in the former measure may indicate changes in memory and/or attentional function whereas changes in the latter two measures may be indicative of other non-cognitive effects of the drugs. Matching to position training began next. This and all subsequent training was conducted with the partitions fitted into the operant boxes. The sessions were initially 50 minutes long. Rats were placed in the operant box and the session began when the houselight was illuminated. Following a 30 s intertrial interval (ITI), one of the two levers (the sample lever) was inserted into the chamber. The lever remained inserted into the chamber until a lever-press response occurred. […] As soon as the magazine flap was pressed the magazine light was extinguished and both levers were inserted. […] The magazine light remained on until the flap was pressed. […] A 30 s ITI was initiated before the commencement of a new trial. The lever inserted as the sample lever was semi-randomly determined such that the right and lefthand levers were presented as the sample lever 8 times in a block of 16 trials. Following 24 sessions, the animals were performing the matching to position task with a high degree of accuracy. On Session 25 a variable delay interval was interposed between the depression of the sample lever and presentation of the levers on the choice trial. After a response to the sample lever, the choice levers were inserted following the first flap press occurring after either a 0 s (immediate), 4, 8 or 16 s delay. The order of the four types of trials (0, 4, 8 or 16 s delay) was semi-randomly determined with the constraint that in a 16 trial block, each delay occurred 4 times; twice on a left trial and twice on a right trial. […] The same trial was reinstated following the end of the ITI. From Session 25 onward the time-out period following incorrect choices was omitted and the session length was increased to 70 minutes. […] Due to poor performance at the 64 s delay, however, this delay was not used in any further sessions. On Session 59, delays of 0, 8, 16 and 32 s were used. These delays were used in all subsequent sessions. Only 51 of the 56 rats completed more than 24 trials (correction plus non-correction) during Session 59. These rats were selected and semi-randomly assigned to the following 7 groups such that the groups were matched on performance (percent correct, response latency and number of trials completed): […] Thus, the drug treatments administered to the seven groups during the 11 consecutive days of the present experiment were: The data collected and analyzed in the present DMTP study include 1) the percentage of correct responses; 2) the latency between performance of a response to the sample lever and the performance of the choice response and 3) the total number of correction and non-correction trials completed. The former two dependent measures were collected for the non-correction trials only. […] Two-way analysis of variance (ANOVA) with drug treatment as the between-subjects factor and delay (0, 8, 16 or 32 s) as the within-subjects factor was used to analyze percentage of correct choices and response latency. These analyses were conducted separately for each block of data. Significant interactions were followed by a one-way ANOVA which was conducted at each delay. A significant main effect from a one-way ANOVA was followed by a two-tailed Dunnett's t-test. One-way ANOVA followed by a post hoc Dunnett's test, when appropriate, was used to analyze the mean number of trials completed. […]

[2] = Toxicity studies in dogs (acute, 1-month); assay type: in vivo
Method: Dose selection was based on data from two studies with nepicastat. […] In a 1-month study, doses of 5, 20, or 80 mg/kg were administered to dogs orally once daily.

Cl.NCc1c[nH]c(=S)n1[C@H]1CCc2c(F)cc(F)cc2C1 [nepicastat, (S)-5-Aminomethyl-1-(5,7-difluoro-1,2,3,4-tetrahydronaphth-2-yl)-2,3-dihydro-2-thioxo-1H-imidazole hydrochloride]
calculated renal vascular resistance (anesthetized SHRs): decreased
renal blood flow, urine production, sodium and potassium excretion (anesthetized SHRs): did not lower renal blood flow or alter urine production or urinary excretion of sodium or potassium
mean arterial pressure (anesthetized SHRs; over 3 hours): decreased mean arterial pressure
peak decrease in blood pressure (normotensive Wistar rats; 30 mg/kg/d, day 2): −10 mmHg
peak antihypertensive response on day 1 (normotensive Wistar rats; 100 mg/kg, 22 hr after dosing): −11 mmHg
all dependent measures ([1]; Block 2): no significant effects on any of the dependent measures
latency to perform the choice response vs vehicle ([1]; Block 4, 32 s delay, nepicastat 10.0 mg/kg): longer latency to perform the choice response
response latency, number of trials completed ([1]; Block 5): did not significantly affect
choice accuracy ([1]; Block 5, 10 and 30 mg/kg at the 32 s delay): marked dose- and delay-dependent impairment in choice accuracy
improvement of DMTP performance ([1]; administered alone, 10 days): does not appear to induce memory enhancing effects
reversal of the effects of scopolamine ([1]; day 11 scopolamine test): did not appear to reverse the effects of scopolamine
days of dosing after which memory-disrupting effects are apparent ([1]; rat, in vivo): 8 days
1-month toxicity ([2]; 80 mg/kg/day orally once daily): Clinical signs of toxicity were present
acute toxicity ([2]; single oral dose of 400 mg/kg): transient clinical signs of toxicity
